In data set [1] the test system is Salmonella typhimurium (Strain TA 100). In words: Ames Salmonella/microsome mutagenic test with human S9 mix and mutagen 2-AA. The format is cell-based. Here is the method:
Mutagenicity is evaluated following the Ames Salmonella mutagenic assay, a bacterial reverse mutation test using a histidine-dependent […] mutant of Salmonella typhimurium lacking both normal DNA repair mechanisms and the ability to grow on a histidine-free medium. See, D. R. Maron and B. Ames. Mutation Research. 1980. 113:173-215, incorporated herein by reference in its entirety. As one skilled in the art understands, the test assumes that DNA-altering chemicals cause mutations and that mutagenicity is closely associated with carcinogenicity. Induced mutations are estimated by the number of bacteria capable of growing on a histidine-free medium. […]
Colonies chosen to generate overnight cultures were grown in 5 ml nutrient broth #2 (Cat No. CM 0067; Oxid Products; Basingstone, Hampshire, UK) at […] to a density of 1-2×10^9 per ml (absorbance of 0.96±0.2 at 600 nm). […]
Test compounds with the S9 mix were incubated for 30 minutes at 37° C., filter sterilized (0.2 μm Acrodisc® V45W500; Pall Galman, Ann Arbor, Mich.), and divided into two 1.5 ml duplicate aliquots. […] Each aliquot was vortexed briefly and immediately poured on Petri dishes containing the minimal glucose agar (MGA) which were allowed to solidify, then inverted and incubated at 37° C. in the dark for 48 hours, after which revertant colonies on control and test plates were counted.

For data set [2], the system named is tumors induced by A. tumefaciens on potato discs. In words: Potato disc tumor induction assay (Agrobacterium tumefaciens-induced tumors). The format is cell-based, Solanium tuberosum L. The protocol: Tumor suppression is evaluated following the well-known Agrobacterium tumor induction assay procedure. The assay depends on the unique property of Agrobacterium tumefaciens of inserting a portion of its tumor-inducing (Ti) plasmid into the chromosomal DNA of a wounded plant, causing tumor-like growths on the plant, a condition commonly known to those skilled in the art as Crown Gall disease. Antitumor potential is measured by tumor suppression on aseptic potato discs treated with the plant extract. See A. B. Galsky, et al. J. Nat. Cancer Inst. 1981. 67:689-692, incorporated herein by reference, in its entirety. Antitumor activity detected by the Agrobacterium assay is correlated with suppression of tumors in animals; thus, plant extracts that suppress Agrobacterium-induced tumor formation have significant potential as human anticarcinogens.
Antitumor effects of extracts were tested using the Potato Tumor Induction method of McLaughlin's laboratories. 1 A. tumefaciens was cultured in Difco Yeast Extract Medium for a period of 48-72 hours at […] for use in the assay. […]

Results on two compounds are retold here after US7691417B2, “Tumor and mutation suppressing plant extract” (Clemson University Research Foundation, priority 2004, dated 2010).

With `Nc1ccc2cc3ccccc3cc2c1` [2-AA, 2-aminianthuracene], the “revertant colonies formed in the presence of 2-AA” value in data set [1] (2-AA alone (DMSO + S9), no extract) is recorded as 991.6. For the same compound, the “colonies formed with 2-AA relative to the control” value in data set [1] (991.6 versus control 48.2) is “approximately 20 fold”.

Take `CC[C@@]1(O)C(=O)OCc2c1cc1n(c2=O)Cc2cc3ccccc3nc2-1` [camptothecin, Camptothecin]: in data set [2] (parallel study, dilution 1:10,000, Table 2), the “% INHIBITION (tumor)” value is recorded as 100%. Besides, in data set [2] (positive inhibitory control of the Table 1 study, camptothecin stock 100 μg/ml), the tumor inhibition was 98.2%.
